Data taken from ChEMBL document CHEMBL3430912, “GSK Tres Cantos Anti-Kinetoplastid Screening (TCAKS) Data”.

Columns and labels:
[1] = target: Sterol 14-alpha demethylase (Trypanosoma cruzi (strain CL Brener), UniProt Q7Z1V1); experiment: GSK_TCAKS: pIC50 CYP51 from Trypanosoma cruzi.; assay type: functional
Trypanosoma cruzi [2] = experiment: (§1) GSK_TCAKS: pIC50 Trypanosoma cruzi Imaging: Infected Cells. […] Cells were then washed once with PBS before infection. T. cruzi trypomastigotes, collected at days 5 to 8 after infection from LLC-MK2 parasite infected cultures, were allowed to swim out for 4h at 37C from a centrifuged pellet (2,500 rpm/10 min/room temperature). Trypomastigotes were then collected and counted in a CASY Cell Counter. Trypomastigotes, in supplemented DMEM, were added to H9c2 cultures in a multiplicity of infection of 1 and incubated for 18 h. Cells were washed once with PBS before incubation of the infected H9c2 monolayer with trypsin (Life-Technologies) to detach cells from the flask. Cells were counted in a CASY Cell Counter using a 150 um capillary and their density set at 5 * 10^4 cells per mL in supplemented assay DMEM. Infected H9c2 were dispensed into 384-well poly-lysine coated assay plates at 50uL per well using a Multidrop Combi dispenser. After seeding them, the plates were incubated at 37C, 5% CO2 for 72h. Cultures were then fixed and stained by addition of 50 uL of a solution containing 8% formaldehyde and 4 uM DRAQ5 DNA dye (BioStatus, UK) per well. […] Five images were collected per well for reliable statistical analysis. Automated image analysis was performed with a script developed on Acapella High Content Imaging and Analysis Software (PerkinElmer). Output: percentage of infected cells per well as a second infection marker.; assay type: functional, organism-based, Rattus norvegicus; conditions: H9c2, 4 h
[3] = GSK_TCAKS: pIC50 HepG2 human cell line viability assay using luminiscence. […] Seeding density was checked to ensure that new mono-layers were not more than 50% confluent at the time of harvesting. Cell suspension was added to 500 mL of the same medium at a final density of 1.2 * 10^5 cells/mL. This cell suspension was dispensed (25 uL, 3000 cells per well) into 384-well clear-bottom plates using a Multidrop Combi dispenser. Prior to addition of the cell suspension, the screening compounds (250 nL) were pre-dispensed into the plates with an Echo liquid handler. Plates were incubated for 48 h at 37C, 5% CO2. After incubation, plates equilibrated at room temperature for 30 min before proceeding to develop the luminescent signal. The signal developer, CellTiter-Glo Reagent, was allowed to equilibrate at room temperature for 30 min and added to the plates (25uL per well) using a Multidrop Combi dispenser. Plates were left for 10 min at room temperature for stabilization and then read using a ViewLux.; assay type: toxicity, cell-based
Leishmania donovani [4] = experiment: (§2) GSK_TCAKS: pIC50 Leishmania donovani Imaging: Amastigotes/Macrophages. Assay plates (384-well) were prepared by adding 250nL of compound to each well. For single shot assay, the final compound concentration was 5 uM. […] Automated image analysis was performed with a script developed on Acapella High Content Imaging and Analysis Software (PerkinElmer). Output: Average number of amastigotes per macrophage cell were reported for each well.; assay type: functional, organism-based, Homo sapiens; conditions: THP-1
[5] = system: Trypanosoma brucei brucei; experiment: GSK_TCAKS: pIC50 Trypanosoma brucei viability assay using luminiscence. Assay plates (1536-well) were prepared. T. brucei cultures were harvested and counted in a CASY cell counter. A parasite suspension was prepared at a final concentration of 5 * 10^4 cells/mL in complete HMI9 medium and 6uL was dispensed to all wells containing compounds using a Multidrop Combi dispenser. 6uL of HMI9 media with 0.4% DMSO were dispensed to control columns. Plates were incubated for 24 h at 37C, 5% CO2 then tempered for 10 min at room temperature. ATP content was quantified by adding 4 uL of CellTiter-Glo Reagent (Promega) according to the manufacturer's instructions. Luminescence was measured using a ViewLux.; assay type: functional, organism-based; conditions: Lister 427, CASY
Trypanosoma cruzi [6] = experiment: as §1, with “H2C9” for “Trypanosoma cruzi”, “H9c2 Host Cardiomyocytes.” for “Infected Cells.”, “Number” for “percentage”, “H9c2 Host Cardiomyocytes nuclei to determine drug-related cytotoxicity.” for “infected cells per well as a second infection marker.”; assay type: functional, organism-based, Rattus norvegicus; conditions: H9c2, 4 h
Leishmania donovani [7] = experiment: as §2, with “THP-1 Host Macrophages.” for “Amastigotes/Macrophages.”, “THP-1” for “Average number of amastigotes per macrophage”, “cell count” for “cell”; assay type: functional, organism-based, Homo sapiens
Trypanosoma cruzi [8] = experiment: GSK_TCAKS: pIC50 Trypanosoma cruzi viability assay using beta-GAL activity. This assay was run at single shot at 5uM compound concentration per well. The biological reagents consisted of NIH-3T3 host cells and trypomastigotes parasitic cells; both cell types were set to a 3.3 * 10^5 cells/mL dilution in assay DMEM by means of a CASY cell counter device using a 60um capillary. 6 uL of the mixture were dispensed per well (about 1 * 10^3 host-cells and 1 * 10^3 parasites) with a Multidrop Combi dispenser. […] In all wells, the percentage of DMSO never exceeded 0.5%. Plates incubated for four days at 37C, 5% CO2. The substrate used for the assay fluorescence intensity (FLINT) readout was resorufin-beta-D-galactopiranoside (Sigma-Aldrich) at 5uM per well. It was diluted in PBS supplemented with the soft detergent Igepal (Fluka).; assay type: functional, organism-based, Mus musculus; conditions: Tulahuen, NIH3T3
Leishmania donovani [9] = experiment: GSK_TCAKS: pIC50 Leishmania donovani viability assay using fluorescence intensity. Assay plates (1536-well) were prepared by adding 30nL per well of compound. For single shot assay, the final compound concentration was 5uM. […] Briefly, eGFP LdBOB axenic amastigotes were harvested, fixed and counted in a CASY cell counter (Roche-Applied Science). A final concentration of 1.5 * 10^5 cells per well were prepared in amastigote media containing 500 U/mL penicillin/streptomycin (Invitrogen) and 6uL was dispensed to each experimental well using a Multidrop Combi dispenser (Thermo Scientific). 6uL of assay media was dispensed to control columns used as reference for 100% compound response. Following incubation for 72 h at 37C, 5% CO2, 2 uL of resazurin was added to each well at a final concentration of 0.5 mM in phosphate buffered saline (PBS) with IGEPAL (Sigma-Aldrich), 0.05% (v/v).; assay type: functional, organism-based
[10] = system: Trypanosoma brucei brucei; experiment: GSK_TCAKS: pIC50 Trypanosoma brucei viability assay using fluorescence intensity. Assay plates (1536-well) were prepared by dispensing 25nL of compound solution per well using an Echo acoustic dispenser (Labcyte).; assay type: functional, organism-based; conditions: Lister 427, 2 h
Trypanosoma cruzi [11] = experiment: GSK_TCAKS: pIC50 Trypanosoma cruzi Imaging: Amastigotes/Cell. […] Cells were then washed once with PBS before infection. T. cruzi trypomastigotes, collected at days 5 to 8 after infection from LLC-MK2 parasite infected cultures, were allowed to swim out for 4h at 37C from a centrifuged pellet (2,500 rpm/10 min/room temperature). Trypomastigotes were then collected and counted in a CASY Cell Counter. Trypomastigotes, in supplemented DMEM, were added to H9c2 cultures in a multiplicity of infection of 1 and incubated for 18 h. Cells were washed once with PBS before incubation of the infected H9c2 monolayer with trypsin (Life-Technologies) to detach cells from the flask. Cells were counted in a CASY Cell Counter using a 150 um capillary and their density set at 5 * 10^4 cells per mL in supplemented assay DMEM. Infected H9c2 were dispensed into 384-well poly-lysine coated assay plates at 50uL per well using a Multidrop Combi dispenser. After seeding them, the plates were incubated at 37C, 5% CO2 for 72h. Cultures were then fixed and stained by addition of 50 uL of a solution containing 8% formaldehyde and 4 uM DRAQ5 DNA dye (BioStatus, UK) per well. […] Five images were collected per well for reliable statistical analysis. Automated image analysis was performed with a script developed on Acapella High Content Imaging and Analysis Software (PerkinElmer). Output: number of amastigotes per cell as infection level measurement.; assay type: functional, organism-based, Rattus norvegicus; conditions: H9c2, 4 h
Leishmania donovani [12] = experiment: as §2, with “Infected Macrophages.” for “Amastigotes/Macrophages.”, “Percent” for “Average number”, “infected” for “amastigotes per”, “cells” for “cell”; assay type: functional, organism-based, Homo sapiens; conditions: THP-1

Chain of Sterol 14-alpha demethylase (Q7Z1V1 whole entry): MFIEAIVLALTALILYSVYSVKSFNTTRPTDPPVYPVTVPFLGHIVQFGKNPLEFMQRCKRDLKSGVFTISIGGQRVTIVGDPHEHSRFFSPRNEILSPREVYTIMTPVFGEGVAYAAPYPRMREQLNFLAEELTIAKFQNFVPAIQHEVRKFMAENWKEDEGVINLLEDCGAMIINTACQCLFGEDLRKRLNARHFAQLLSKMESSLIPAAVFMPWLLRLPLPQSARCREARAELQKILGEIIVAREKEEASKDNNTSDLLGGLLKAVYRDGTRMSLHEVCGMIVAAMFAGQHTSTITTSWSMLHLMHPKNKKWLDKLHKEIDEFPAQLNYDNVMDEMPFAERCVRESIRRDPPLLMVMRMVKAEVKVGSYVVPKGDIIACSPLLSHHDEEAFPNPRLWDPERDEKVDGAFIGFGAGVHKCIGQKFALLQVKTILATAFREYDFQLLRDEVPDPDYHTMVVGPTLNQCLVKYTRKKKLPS

Compound | IC50 [1] [µM] | IC50 (Trypanosoma cruzi [2]) [µM] | IC50 at 48 h [3] [µM] | IC50 (Leishmania donovani [4]) [µM] | IC50 [5] [µM] | IC50 (Trypanosoma cruzi [6]) [µM] | IC50 (Leishmania donovani [7]) [µM] | IC50 (Trypanosoma cruzi [8]) [µM] | IC50 (Leishmania donovani [9]) [µM] | IC50 [10] [µM] | IC50 (Trypanosoma cruzi [11]) [µM] | IC50 (Leishmania donovani [12]) [µM]
COc1ccc(S(=O)(=O)Nc2ccc(CN3CCN(C(=O)c4cccc(C#N)c4)CC3)cc2)cc1 | > 100 | 1 | > 100 | > 50.1 | 0.631 | > 50.1 | > 50.1 | 1 | 31.6 | 0.398 | 0.794 | > 50.1
O=C(c1cccc(Nc2ncc(-c3ccc4c(c3)OCO4)cn2)c1)N1CCOCC1 | 20 | 1.26 | > 126 | 1.58 | > 50.1 | 6.31 | > 63.1 | 6.31 | 2 | 25.1 | 0.794 | 3.98
CCc1cccc(CC)c1-n1c(SCC(=O)N2CC(=O)Nc3ccccc32)nnc1-c1cccnc1 | 3.16 | 31.6 | > 100 | > 50.1 | 1 | > 50.1 | > 50.1 | 25.1 | 39.8 | 0.501 | 25.1 | > 50.1
CC(C)(C)c1csc(NC(=O)c2ccc([N+](=O)[O-])s2)n1 | 7.94 | 0.316 | 50.1 | 2.51 | 1.58 | 12.6 | > 50.1 | 0.158 | 1.58 | 0.2 | 0.2 | 3.16
COc1ccc(OC)c(NC(=O)c2ccc([N+](=O)[O-])o2)c1 | 10 | 12.6 | 20 | 15.8 | 0.0631 | 3.98 | 20 | 3.16 | 25.1 | 0.0158 | 7.94 | 31.6
CN(C)S(=O)(=O)c1cccc(C(=O)Nc2nc(-c3ccccn3)cs2)c1 | 31.6 | 1.58 | > 100 | 2.51 | 0.631 | 7.94 | 7.94 | 1.26 | 1.26 | 0.501 | 1 | 6.31
Cc1cc(C)n(-c2nc(NC(C)(C)C)nc(N3CCOCC3)n2)n1 | > 100 | 10 | 100 | 3.98 | 3.98 | 1.26 | > 50.1 | 5.01 | 6.31 | 12.6 | 3.16 | 7.94
COc1ccc(C2C3CCCCC3(O)CCN2CC(=O)Nc2ccc(Cl)cc2Cl)cc1 (centres undefined) | 10 | 1.26 | > 100 | 0.794 | 25.1 | 20 | > 50.1 | 2.82 | 1.58 | 7.94 | 0.794 | 2.51
Cc1cc(-c2cccc3ccccc23)nc2nc(N)nc(N)c12 | > 100 | > 50.1 | 50.1 | 1 | 20 | > 50.1 | 50.1 | 39.8 | 2 | 31.6 | 31.6 | 5.01
COc1ccc(C2=NCC(CSc3nnc(-c4ccc5c(c4)OCO5)o3)S2)cc1 (centres undefined) | 10 | 0.501 | > 100 | 0.398 | > 39.8 | > 50.1 | > 50.1 | 2.51 | 1 | 10 | 0.316 | 1
O=C(CN1CCC2(O)CCCCC2C1c1ccc2c(c1)OCO2)Nc1ccc(Cl)cc1Cl (centres undefined) | 12.6 | 5.01 | > 100 | 1.26 | 7.94 | > 50.1 | > 50.1 | 12.6 | 5.01 | 12.6 | 3.16 | 3.16
Cc1nn(-c2nc(N)nc(-c3ccccn3)n2)c(C)c1Cc1ccccc1 | 63.1 | 3.16 | > 100 | 2.51 | 6.31 | 20 | > 50.1 | 2.51 | 5.01 | > 39.8 | 2 | 3.16
COc1ccc(C(=O)Nc2ccc(NC(=O)CO)cc2)cc1 | > 100 | > 50.1 | > 100 | > 50.1 | 0.251 | > 50.1 | 20 | > 50.1 | > 50.1 | 0.251 | > 50.1 | > 50.1
COc1ccc2ncc(F)c(CCN3CC[C@@H](NC(=O)c4cc5c(s4)CCC5)[C@@H](O)C3)c2n1 | 1.26 | 0.126 | 50.1 | 1.26 | 0.316 | 0.126 | 25.1 | 0.158 | 1 | 0.1 | 0.0501 | 6.31
O=c1cc(NCCCNCc2c[nH]c3ccc(Br)cc23)[nH]c2ccccc12 | > 100 | > 50.1 | > 100 | > 50.1 | 0.794 | > 50.1 | > 50.1 | > 50.1 | > 50.1 | 1 | 31.6 | > 50.1
c1ccc(-c2nc(NC3CCCC3)c3ccccc3n2)nc1 | > 100 | 0.794 | 15.8 | 1.26 | 6.31 | 0.501 | 20 | 2 | 3.98 | 6.31 | 2 | 2
Fc1ccc(Nc2nc(-c3ccccn3)cs2)cc1 | 15.8 | 5.01 | > 100 | 6.31 | 25.1 | 1 | > 50.1 | 2.51 | 20 | 25.1 | 5.01 | 10
